{"source": "paper PMC6518372", "about": "“An enzymatically stable GIP/xenin hybrid peptide restores GIP sensitivity, enhances beta cell function and improves glucose homeostasis in high-fat-fed mice” (Diabetologia, 2016)", "test_system": "BRIN-BD11 cells", "assay": "In vitro insulin secretion from BRIN-BD11 cells", "type": "cell-based, rat", "conditions": "20 min", "protocol": "BRIN-BD11 cells were used to assess the insulin-releasing activity of test peptides, as described previously. This hybrid cell line (ECACC 10033003) was originally generated in-house by electrofusion of a primary culture of New England Deaconess Hospital (NEDH) rat pancreatic islets with RINm5F (a cell line derived from an NEDH rat insulinoma), and has been mycoplasma eradicated. For details of experimental conditions please see ESM Methods. Insulin was measured by radioimmunoassay. We assessed the impact of GIP and neurotensin receptors on (DAla^2)GIP/xenin-8-Gln-induced insulin secretion in BRIN-BD11 cells. Cells were incubated in 5.6 mmol/l glucose with (DAla^2)GIP/xenin-8-Gln (10^−6 mol/l) alone or in combination with the GIP receptor antagonist GIP(6-30)Cex-K^40[Pal] [32] (where Pal is palmitate) or the neurotensin receptor antagonist SR142948A (Sigma, Poole, UK), and insulin secretion determined as described above. In addition, to determine mechanisms, intracellular Ca^2+ was also measured in BRIN-BD11 cells following treatment with test peptides (10^−6 mol/l), using a Flexstation scanning fluorometer (FLIPR Calcium 5 assay kit; Molecular Devices, Sunnyvale, CA, USA), as described previously.\nIn vitro insulin release studies Cells were seeded at a density of 150,000 cells/well in 24-well plates (Nunc, Roskilde, Denmark) and allowed to attach overnight at 37 °C. Culture medium was removed and cells were pre-incubated in Krebs–Ringer bicarbonate buffer (containing 0.5% (w/v) BSA, pH 7.4) supplemented with 1.1 mmol/l glucose for 40 min at 37 °C. Following the pre-incubation, experiments (n=8) were performed in presence of glucose (5.6 or 16.7 mmol/l) with a […]\nincubations, aliquots of assay buffer were collected from each well and stored at -20 °C prior to […]\nAcute in vivo effects in lean mice For food intake studies, fasted (18 h) mice were given intraperitoneal (i.p) injections of peptides at a dose of 25, 100 or 250 nmol/kg bw. Mice were then allowed free access to normal chow for 180 mins and cumulative food intake measured. […]"}
{"smiles": "CC[C@H](C)[C@H](NC(=O)[C@H](CO)NC(=O)[C@H](Cc1ccc(O)cc1)NC(=O)[C@H](CC(=O)O)NC(=O)[C@H](CO)NC(=O)[C@@H](NC(=O)[C@H](Cc1ccccc1)NC(=O)[C@@H](NC(=O)CNC(=O)[C@H](CCC(=O)O)NC(=O)[C@@H](C)NC(=O)[C@@H](N)Cc1ccc(O)cc1)[C@@H](C)O)[C@@H](C)CC)C(=O)N[C@@H](C)C(=O)N[C@@H](CCSC)C(=O)N[C@@H](CC(=O)O)C(=O)N[C@@H](CCCCN)C(=O)N[C@H](C(=O)N[C@@H](Cc1c[nH]cn1)C(=O)N[C@@H](CCC(N)=O)C(=O)N[C@@H](CCC(N)=O)C(=O)N[C@@H](CC(=O)O)C(=O)N[C@@H](Cc1ccccc1)C(=O)N[C@H](C(=O)N[C@@H](CC(N)=O)C(=O)N[C@@H](Cc1c[nH]c2ccccc12)C(=O)N[C@@H](CC(C)C)C(=O)N[C@@H](CC(C)C)C(=O)N[C@@H](C)C(=O)N[C@@H](CCC(N)=O)C(=O)N[C@@H](CCCCN)C(=O)NCC(=O)N[C@@H](CCCCN)C(=O)N[C@@H](CCCCN)C(=O)N[C@@H](CC(N)=O)C(=O)N[C@@H](CC(=O)O)C(=O)N[C@@H](Cc1c[nH]c2ccccc12)C(=O)N[C@@H](CCCCN)C(=O)N[C@@H](Cc1c[nH]cn1)C(=O)N[C@@H](CC(N)=O)C(=O)N[C@H](C(=O)N[C@H](C(=O)N[C@@H](CCC(N)=O)C(=O)O)[C@@H](C)O)[C@@H](C)CC)C(C)C)[C@@H](C)CC", "note": "[(DAla^2)GIP]", "values": [{"measurement": "Peptide-mediated insulin secretion in presence of GIP receptor antagonist GIP(6-30)Cex-K^40[Pal]", "setting": "peptide 10^−6 mol/l, antagonist 10^−6 mol/l, 5.6 mmol/l glucose", "result": "completely annulled"}, {"measurement": "Insulin release from BRIN-BD11 cells", "setting": "peptide 10^−8 mol/l, 5.6 or 16.7 mmol/l glucose, vs respective glucose controls", "result": "significant (p < 0.01 to p < 0.001) increase in insulin release"}]}
